Measurements published in patent publication US9493444B2 (Merck Patent GmbH, priority 2012, dated 2016).

Each compound was assayed on Wnt pathway (TCF-dependent transcription in HEK293 luciferase reporter cell line with ER-DSH construct) (assay: Cellular assay for Wnt pathway activity (luciferase reporter)). Conditions: Homo sapiens; Wnt pathway inhibition, HEK293 luciferase reporter cells (ER-DSH, TCF promoter), 24 hours incubation, estrogen-induced.
Format: cell-based
Summary of the method: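 Luminescent luciferase read-out after 24 h compound exposure at 1 nM to 30 μM, with TCF-driven transcription switched on by estrogen addition. IC50 values come from curve fits of data normalized against the vehicle-only control.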

**Q.** `O=C1[C@@H]2CC[C@@H](C2)N1CCCc1cncc(Oc2ccc(F)cc2)n1` [Compound 303, (1S,4R)-2-{3-[6-(4-Fluoro-phenoxy)-pyrazin-2-yl]-propyl}-2-aza-bicyclo[2.2.1]heptan-3-one] was tested. Which IC50 did it give?
**A.** 200 to 1000 nM

**Q.** With `CC(=O)N(C)CCNc1cncc(Oc2ccc(-c3cccc(N4CCN(C)CC4)n3)cc2)n1` [Compound 234, N-Methyl-N-[2-(6-{4-[6-(4-methyl-piperazin-1-yl)-pyridin-2-yl]-phenoxy}-pyrazin-2-ylamino)-ethyl]-acetamide] as the compound, how does the IC50 read?
**A.** < 200 nM

**Q.** How did the IC50 turn out when `CC(=O)N(C)CCCc1cncc(Oc2ccc(-c3ccc(N4CCOCC4)nc3)cc2)c1` [Compound 318, N-Methyl-N-(3-{5-[4-(6-morpholin-4-yl-pyridin-3-yl)-phenoxy]-pyridin-3-yl}-propyl)-acetamide] was run?
**A.** 200 to 1000 nM

**Q.** Which IC50 does the source give for `CCN(CCN(CC)c1cncc(Oc2ccc(OC)cc2)n1)C(C)=O` [Compound 103, N-Ethyl-N-(2-{ethyl-[6-(4-methoxy-phenoxy)-pyrazin-2-yl]-amino}-ethyl)-acetamide] here?
**A.** 200 to 1000 nM

**Q.** For `CCN(CCNc1cncc(Oc2ccc(F)cc2)n1)C(C)=O` [Compound 72, N-Ethyl-N-{2-[6-(4-fluoro-phenoxy)-pyrazin-2-ylamino]-ethyl}-acetamide], which IC50 is on record?
**A.** 1000 to 10000 nM

**Q.** `Cc1ccc(-c2ccc(Oc3cncc(NCCN4CCCCC4=O)n3)cc2)nc1` [Compound 197, 1-(2-{6-[4-(5-Methyl-pyridin-2-yl)-phenoxy]-pyrazin-2-ylamino}-ethyl)-piperidin-2-one] was tested. Which IC50 did it give?
**A.** < 200 nM

**Q.** How did the IC50 turn out when `CC(=O)N(C)CCN(C)c1cncc(Oc2ccc(Cc3ncc(C(F)(F)F)cc3Cl)cc2)n1` [Compound 159, N-[2-({6-[4-(3-Chloro-5-trifluoro-methyl-pyridin-2-ylmethyl)-phenoxy]-pyrazin-2-yl}-methyl-amino)-ethyl]-N-methyl-acetamide] was run?
**A.** 200 to 1000 nM

**Q.** Which IC50 does the source give for `CC(=O)N(C)CCN(C)c1cncc(Oc2ccc(C(C)(C)C)cc2)n1` [Compound 85, N-(2-{[6-(4-tert-Butyl-phenoxy)-pyrazin-2-yl]-methyl-amino}-ethyl)-N-methyl-acetamide] here?
**A.** < 200 nM

**Q.** For `CN(CCN1CCCCC1=O)c1cncc(Oc2ccc(F)cc2)n1` [Compound 116, 1-(2-{[6-(4-Fluoro-phenoxy)-pyrazin-2-yl]-methyl-amino}-ethyl)-piperidin-2-one], which IC50 is on record?
**A.** < 200 nM

**Q.** Which IC50 does the source give for `CC(N)C(=O)N(C)CCN(C)c1cncc(Oc2ccc(F)cc2)n1` (stereo not drawn) [Compound 308, 2-Amino-N-(2-{[6-(4-fluoro-phenoxy)-pyrazin-2-yl]-methyl-amino}-ethyl)-N-methyl-propionamide] here?
**A.** 1000 to 10000 nM

**Q.** With `CC(=O)N(CCSc1cncc(Oc2ccc(-c3ccc(C)cn3)cc2)n1)C(C)C` [Compound 169, N-Isopropyl-N-(2-{6-[4-(5-methyl-pyridin-2-yl)-phenoxy]-pyrazin-2-ylsulfanyl}-ethyl)-acetamide] as the compound, how does the IC50 read?
**A.** < 200 nM

**Q.** How did the IC50 turn out when `CC(=O)N(C)CCN(C)c1cncc(Oc2ccc(-c3ncnc4[nH]ccc34)cc2)n1` [Compound 191, N-Methyl-N-[2-(methyl-{6-[4-(7H-pyrrolo[2,3-d]pyrimidin-4-yl)-phenoxy]-pyrazin-2-yl}-amino)-ethyl]-acetamide] was run?
**A.** < 200 nM

**Q.** Which IC50 does the source give for `CC(=O)N(C)CCN(C)c1cncc(Sc2ccc(Br)cc2)n1` [Compound 130, N-(2-{[6-(4-Bromo-phenyl-sulfanyl)-pyrazin-2-yl]-methyl-amino}-ethyl)-N-methyl-acetamide] here?
**A.** 1000 to 10000 nM

**Q.** `CC(=O)OCc1ccc(Oc2cncc(N(C)CCN(C)C(C)=O)n2)cc1` [Compound 176, Acetic acid 4-(6-{[2-(acetyl-methyl-amino)-ethyl]-methyl-amino}-pyrazin-2-yloxy)-benzyl ester] was tested. Which IC50 did it give?
**A.** < 200 nM

**Q.** `CC(=O)N(C)CCN(C)c1cncc(Oc2ccc(C(F)(F)F)cc2)n1` [Compound 121, N-Methyl-N-(2-{methyl-[6-(4-trifluoro-methyl-phenoxy)-pyrazin-2-yl]-amino}-ethyl)-acetamide] was tested. Which IC50 did it give?
**A.** 200 to 1000 nM

**Q.** Which IC50 does the source give for `CC(=O)N(C)CCN(C)c1cncc(Oc2ccc(-c3ccnc(C#N)c3)cc2)n1` [Compound 201, N-[2-({6-[4-(2-Cyano-pyridin-4-yl)-phenoxy]-pyrazin-2-yl}-methyl-amino)-ethyl]-N-methyl-acetamide] here?
**A.** < 200 nM

**Q.** How did the IC50 turn out when `CC(=O)N(C)CCN(C)c1cncc(Oc2ccc(B(O)O)cc2)n1` [Compound 7, 4-(6-{[2-(Acetyl-methyl-amino)-ethyl]-methyl-amino}-pyrazin-2-yloxy)-boronic acid] was run?
**A.** 200 to 1000 nM

**Q.** `COc1ccc(-c2ccc(Oc3cncc(CCCN(C)C(C)=O)n3)cc2)nc1` [Compound 221, N-(3-{6-[4-(5-Methoxy-pyridin-2-yl)-phenoxy]-pyrazin-2-yl}-propyl)-N-methyl-acetamide] was tested. Which IC50 did it give?
**A.** 200 to 1000 nM
